Data set [1] in a line: Stability of aqueous formulation on shelf storage / accelerated storage. The data set is classed as physicochemical.
The conditions of data set [2]: cited from earlier work.
Data set [3] is described as follows: Particulate matter in aqueous solution (USP requirements). The data set is classed as physicochemical. The following applies: aqueous solution of ganciclovir base at about or below about 3 mg/ml. From the text: As used herein, the term “particulate-matter-free” or its grammatical equivalents such as “particle free” refer to the state in which the composition of the present invention meets the USP requirements for particulate matter in parenteral solutions. See for example, USP XXXII, Chapter 788. One of skill in the art understands and knows how to assess whether a given composition meets USP particulate matter requirements.

The conditions of data set [4]: cited from earlier work. This is another data set of the same source.

Where two headings read alike, the source gives them in different places.

In the case of `Nc1nc2c(ncn2COC(CO)CO)c(=O)[nH]1` [ganciclovir base, 9-(1,3-dihydroxy-2-propoxymethyl)guanine], the “retained initial concentration of ganciclovir” value in data set [1] (aqueous solution at about or below about 3 mg/ml, accelerated storage or stability testing conditions) is listed as “at least 95%”. Also, the “stability for extended shelf-storage” value in data set [1] (aqueous solution of ganciclovir base at concentrations of about or below about 3 mg/ml) is on record as “stable for extended shelf-storage”. In data set [2], the solubility in water entry is reported as “limited solubility in water”. Also, the particulate matter entry in data set [3] is listed as “free or substantially free of particulate matter”.
On to `Nc1nc(O)c2ncn(COC(CO)CO)c2n1` [ganciclovir sodium], for which the solubility in water entry in data set [2] (listed as Ganciclovir sodium salt) was “very soluble in water”. The “stability in an aqueous formulation (prolonged shelf-storage)” value in data set [4] is on record as “not sufficiently stable”.

Source of the values: US20250319189A1, “GANCICLOVIR COMPOSITIONS AND RELATED METHODS” (Exela Pharma Sciences, LLC, priority 2013, published 2025).
